Here are results for seven molecules from patent US12263248B2, “Compounds and compositions for intracellular delivery of therapeutic agents” (ModernaTX, Inc., priority 2018, dated 2025).

Where two headings read alike, the source gives them in different places.

For data set [1], the system named is hEPO mRNA. As to the kind of experiment: hEPO expression and cytokine induction after intravenous administration to mice. Format: in vivo. As to conditions: for hEPO expression and average total flux compared with MC3: Table 12 comparison, in words; for hEPO concentrations compared with MC3 formulations / hEPO expression 3 h / Average hEPO concentration (pg/ml, 6 h) / Cytokine expression IL-6 (6 h) / Cytokine expression IP-10 (6 h) / hEPO expression 6 h / Fold increase in hEPO concentration relative to MC3 / hEPO expression 24 h: mice, 0.5 mpk; for hEPO concentrations compared with MC3 formulations: i.v., 3, 6 and 24 hours; for hEPO expression 3 h / Average hEPO concentration (pg/ml, 6 h) / Cytokine expression IL-6 (6 h) / Cytokine expression IP-10 (6 h) / hEPO expression 6 h / Fold increase in hEPO concentration relative to MC3 / hEPO expression 24 h: intravenous; for Average hEPO concentration (pg/ml, 6 h) / Cytokine expression IL-6 (6 h) / Cytokine expression IP-10 (6 h) / hEPO expression 6 h / Fold increase in hEPO concentration relative to MC3: 6 h; for Fold increase in hEPO concentration relative to MC3: Table 12. As for the experimental part:
The expression of hEPO and cytokine induction in mice intravenously administered a nanoparticle composition at a dose of 0.5 mpk were measured at 3, 6, and 24 hours. […] The expression of hEPO in mice intramuscularly administered a nanoparticle composition from Table 1B at a dose of 0.01 mpk were measured at 3, 6, and 24 hours.
Blood collection and analysis for hEPO. Blood was collected from mice or rats via the tail vein and hEPO concentrations were determined using a hEPO ELISA assay.

Data set [2] in a line: Pharmacokinetics of lipids in mice. The data set is classed as in vivo. Further details: AUC / AUCall Mean: concentration or dose not given beside the values. As to conditions: mouse; for AUC: read-out: AUCall Mean; for Tmax: read-out: Tmax. How it is done:
FIGS. 45A and 45B are a pair of graphs illustrating pharmacokinetics of lipids of the disclosure in mice. Mice were administered compositions comprising Compound 50 (FIG. 45A) or Compound 301 (FIG. 45B), in nanoparticle compositions containing DSPC and PEG 1.

A short description of data set [3]: Nanoparticle characterisation: particle size, polydispersity index, zeta potential. Format: physicochemical. As to conditions: nanoparticle composition with hEPO mRNA (Table 30). The text has this:
Nanoparticle compositions may be characterized by a variety of methods. For example, microscopy (e.g., transmission electron microscopy or scanning electron microscopy) may be used to examine the morphology and size distribution of a nanoparticle composition. Dynamic light scattering or potentiometry (e.g., potentiometric titrations) may be used to measure zeta potentials. Dynamic light scattering may also be utilized to determine particle sizes. Instruments such as the Zetasizer Nano ZS (Malvern Instruments Ltd, Malvern, Worcestershire, UK) may also be used to measure multiple characteristics of a nanoparticle composition, such as particle size, polydispersity index, and zeta potential.
The mean size of a nanoparticle composition may be between 10s of nm and 100s of nm, e.g., measured by dynamic light scattering (DLS). For example, the mean size may be from about 40 nm to about 150 nm, such as about 40 nm, 45 nm, 50 nm, 55 nm, 60 nm, 65 nm, 70 nm, 75 nm, 80 nm, 85 nm, 90 nm, 95 nm, 100 nm, 105 nm, 110 nm, 115 nm, 120 nm, 125 nm, 130 nm, 135 nm, 140 nm, 145 nm, or 150 nm. In some embodiments, the mean size of a nanoparticle composition may be from about 50 nm to about 100 nm, from about 50 nm to about 90 nm, from about 50 nm to about 80 nm, from about 50 nm to about 70 nm, from about 50 nm to about 60 nm, from about 60 nm to about 100 nm, from about 60 nm to about 90 nm, from about 60 nm to about 80 nm, from about 60 nm to about 70 nm, from about 70 nm to about 150 nm, from about 70 nm to about 130 nm, from about 70 nm to about 100 nm, from about 70 nm to about 90 nm, from about 70 nm to about 80 nm, from about 80 nm to about 150 nm, from about 80 nm to about 130 nm, from about 80 nm to about 100 nm, from about 80 nm to about 90 nm, from about 90 nm to about 150 nm, from about 90 nm to about 130 nm, or from about 90 nm to about 100 nm. In certain embodiments, the mean size of a nanoparticle composition may from about 70 nm to about 130 nm or be from about 70 nm to about 100 nm. In a particular embodiment, the mean size may be about 80 nm. In other embodiments, the mean size may be about 100 nm. In other embodiments, the mean size may be about 120 nm.
A nanoparticle composition may be relatively homogenous. A polydispersity index may be used to indicate the homogeneity of a nanoparticle composition, e.g., the particle size distribution of the nanoparticle compositions. A small (e.g., less than 0.3) polydispersity index generally indicates a narrow particle size distribution. A nanoparticle composition may have a polydispersity index from about 0 to about 0.25, such as 0.01, 0.02, 0.03, 0.04, 0.05, 0.06, 0.07, 0.08, 0.09, 0.10, 0.11, 0.12, 0.13, 0.14, 0.15, 0.16, 0.17, 0.18, 0.19, 0.20, 0.21, 0.22, 0.23, 0.24, or 0.25. In some embodiments, the polydispersity index of a nanoparticle composition may be from about 0.10 to about 0.20.
The zeta potential of a nanoparticle composition may be used to indicate the electrokinetic potential of the composition. For example, the zeta potential may describe the surface charge of a nanoparticle composition. Nanoparticle compositions with relatively low charges, positive or negative, are generally desirable, as more highly charged species may interact undesirably with cells, tissues, and other elements in the body. In some embodiments, the zeta potential of a nanoparticle composition may be from about −10 mV to about +20 mV, from about −10 mV to about +15 mV, from about −10 mV to about +10 mV, from about −10 mV to about +5 mV, from about −10 mV to about 0 mV, from about −10 mV to about −5 mV, from about −5 mV to about +20 mV, from about −5 mV to about +15 mV, from about −5 mV to about +10 mV, from about −5 mV to about +5 mV, from about −5 mV to about 0 mV, from about 0 mV to about +20 mV, from about 0 mV to about +15 mV, from about 0 mV to about +10 mV, from about 0 mV to about +5 mV, from about +5 mV to about +20 mV, from about +5 mV to about +15 mV, or from about +5 mV to about +10 mV.

The nature of data set [4]: ALT and AST after intravenous administration to rat (Table 19A). Format: in vivo. How it is done:
Table 19A summarizes the hEPO expression, IP-10 induction, liver and spleen levels, and alanine aminotransferase (ALT) and aspartate aminotransferase (AST) measured upon intravenous administration of formulations including Compounds 48, 49, and 50 to rat at 0.2 and 2 mpk and hEPO mRNA. hEPO concentrations were measured 6 hours after administration, while cytokine induction and liver and spleen levels were measured 48 hours after administration. hEPO and IP-10 concentrations are presented in pg/ml, while liver levels are provided in ng/g. ALT and AST levels are presented in international units.

Setting [5] is: Liver, * = 2 terminal datapoints estimation.
Where [6] appears, read: Spleen, * = 2 terminal datapoints estimation.

What is called Cmax is the peak of the concentration-time curve. Usually Tmax stands for the time from dosing to the highest level.

As for `CCCCC/C=C\C/C=C\CCCCCCCCN(CCO)CCCCCCCC(=O)OC(CCCCCCCC)CCCCCCCC` [Compound 6, Heptadecan-9-yl 8-((2-hydroxyethyl)((9Z,12Z)-octadeca-9,12-dien-1-yl)amino)octanoate], in data set [1], the “hEPO expression and average total flux compared with MC3” value is “outperform MC3”; the “hEPO concentrations compared with MC3 formulations” value was “higher hEPO concentrations than MC3 formulations”; the “hEPO expression 3 h” value is 2.31e+06 pg/mL; the “Average hEPO concentration (pg/ml, 6 h)” value was found to be 3.17e+06 pg/mL. In data set [1], the “Cytokine expression IL-6 (6 h)” value came out at 10.15 pg/mL, the “Cytokine expression IP-10 (6 h)” value was found to be 116.66 pg/mL, the “hEPO expression 6 h” value is 3.17e+06 pg/mL and the “Fold increase in hEPO concentration relative to MC3” value was determined as 1.73. Also, in data set [1], the “hEPO expression 24 h” value is 1.11e+06 pg/mL.

With `CCCCCCCCCOC(=O)CCCCCCCN(CCO)CCCCCCCC(=O)OC(CCCCCCCC)CCCCCCCC` [Compound 18, Heptadecan-9-yl 8-((2-hydroxyethyl)(8-(nonyloxy)-8-oxooctyl)amino)octanoate], in data set [2] (Liver), the concentration peaked (Cmax) at 6050 ng/mL, the AUC was found to be 16900 ng·h/mL and the Tmax turned out to be 1 h. In addition, the HL in data set [2] (setting [5]) is 5.8 h. Further, in data set [2] (Plasma), the highest concentration (Cmax) is 44200 ng/mL, the HL turned out to be 1.2 h, the AUC amounted to 61800 ng·h/mL and the Tmax was 0.5 h. Besides, in data set [2] (Spleen), the Cmax worked out at 3770 ng/mL, the AUC stood at 39400 ng·h/mL and the Tmax amounted to 4 h. In data set [2] (setting [6]), the HL is 10.6 h. For the same molecule, in data set [1], the “hEPO expression and average total flux compared with MC3” value was “outperform MC3”; the “hEPO concentrations compared with MC3 formulations” value is recorded as “higher hEPO concentrations than MC3 formulations”; the “hEPO expression 3 h” value was determined as 3e+06 pg/mL; the “Average hEPO concentration (pg/ml, 6 h)” value was determined as 3.38e+06 pg/mL. In data set [1], the “Cytokine expression IL-6 (6 h)” value was determined as 10.16 pg/mL, the “Cytokine expression IP-10 (6 h)” value came to 299.93 pg/mL, the “hEPO expression 6 h” value came to 3.38e+06 pg/mL and the “Fold increase in hEPO concentration relative to MC3” value stood at 1.85. For the same molecule, in data set [1], the “hEPO expression 24 h” value came out at 1.8e+06 pg/mL. In addition, in data set [3], the Osmolality amounted to 312 mOsm/kg, the Zeta potential is listed as −3.53 mV and the pH was found to be 7.64.

Consider `CCCCCCCCCCCOC(=O)CCCCCN(CCO)CCCCCCCC(=O)OC(CCCCCCCC)CCCCCCCC` [Compound 25, Heptadecan-9-yl 8-((2-hydroxyethyl)(6-oxo-6-(undecyloxy)hexyl)amino)octanoate], for which, in data set [2] (Liver), the peak level (Cmax) was 17900 ng/mL, the AUC is 89200 ng·h/mL and the Tmax turned out to be 1 h. The HL in data set [2] (setting [5]) is 6.9 h. Further, in data set [2] (Plasma), the highest level (Cmax) was 37500 ng/mL, the HL came to 2.3 h, the AUC amounted to 35400 ng·h/mL and the time of peak concentration (Tmax) came to 0.5 h. For the same molecule, in data set [2] (Spleen), the Cmax came to 20400 ng/mL, the AUC was 259000 ng·h/mL and the time to peak (Tmax) is 4 h. Also, the HL in data set [2] (setting [6]) is 15.2 h. For the same molecule, in data set [3], the Osmolality is listed as 304 mOsm/kg, the Zeta potential was −3.88 mV and the pH is 7.60.

`CCCCCCCCCOC(=O)CCCN(CCO)CCCCCCCC(=O)OC(CCCCCCCC)CCCCCCCC` [Compound 26, Heptadecan-9-yl 8-((2-hydroxyethyl)(4-(nonyloxy)-4-oxobutyl)amino) octanoate]: in data set [3], the Osmolality is 305 mOsm/kg, the Zeta potential was −3.73 mV and the pH is 7.54.

In data set [4] (0.2 mpk), `CCCCCCCCC(C)OC(=O)CCCCCCCN(CCO)CCCCCCCC(=O)OC(CCCCCCCC)CCCCCCCC` (stereo not drawn) [Compound 48, decan-2-yl 8-((8-(heptadecan-9-yloxy)-8-oxooctyl)(2-hydroxyethyl)amino)octanoate] displayed an ALT of 59.6 international units and an AST of 140.8 international units. In addition, in data set [4] (2 mpk), the ALT is listed as 66.0 international units and the AST turned out to be 131.2 international units. In data set [3], the Osmolality is given as 311 mOsm/kg, the Zeta potential is listed as −3.61 mV and the pH is 7.58.

With `CCCCCCCCC(CC)OC(=O)CCCCCCCN(CCO)CCCCCCCC(=O)OC(CCCCCCCC)CCCCCCCC` (stereo not drawn) [Compound 49, heptadecan-9-yl 8-((2-hydroxyethyl)(8-oxo-8-(undecan-3-yloxy)octyl)amino)octanoate], the ALT was found to be 54.0 international units in data set [4] (0.2 mpk) and 77.8 international units in data set [4] (2 mpk). Further, the results for the AST in data set [4] (0.2 mpk) and in data set [4] (2 mpk) were 99.4 international units and 132.4 international units, respectively.

Turning to `CCCCCCCCC(CCC)OC(=O)CCCCCCCN(CCO)CCCCCCCC(=O)OC(CCCCCCCC)CCCCCCCC` (stereo not drawn) [Compound 50, dodecan-4-yl 8-((8-(heptadecan-9-yloxy)-8-oxooctyl)(2-hydroxyethyl)amino)octanoate], the ALT is on record as 59.2 international units in data set [4] (0.2 mpk) and 78.8 international units in data set [4] (2 mpk). Besides, the AST stood at 143.2 international units in data set [4] (0.2 mpk) and 158.4 international units in data set [4] (2 mpk).
